A value given as a limit tells only on which side of the number the result lay.

The results in this text go back to ChEMBL document CHEMBL5316341, “The Development and Design Strategy of Leucine-Rich Repeat Kinase 2 Inhibitors: Promising Therapeutic Agents for Parkinson's Disease” (J Med Chem, 2023).

In data set [1] the target is T1, Protein cereblon/Leucine-rich repeat serine/threonine-protein kinase 2 (Homo sapiens, UniProt Q5S007+Q96SW2). Kind of data set: PROTAC activity at CRBN/wild type HiBit tagged-LRRK2 in HEK293 cells assessed as LRRK2 degradation by measuring maximum degradation by Nano-Glo dual-luciferase reporter assay relative to control. It is filed as cell-based. A general note: The HiBiT peptide binds its large partner to form an active luciferase.

Data set [2] relates to Protein cereblon/Leucine-rich repeat serine/threonine-protein kinase 2 (Homo sapiens), Q5S007+Q96SW2 [G2019S]. Kind of data set: PROTAC activity at CRBN/LRRK2 G2019S mutant in HEK293 cells assessed as LRRK2 degradation by measuring maximum degradation by Nano-Glo dual-luciferase reporter assay relative to control. In kind it is cell-based. On the technique in general: Reporter assays use an easily measured gene product as a stand-in for the process of interest.

For data set [3], the target named is Protein cereblon/Leucine-rich repeat serine/threonine-protein kinase 2 (Homo sapiens, UniProt Q5S007+Q96SW2, G2019S). Description: PROTAC activity at CRBN/HiBit tagged-LRRK2 G2019S mutant in HEK293 cells assessed as LRRK2 degradation by Nano-Glo dual-luciferase reporter assay. In kind it is cell-based.
The target of data set [4] is T1, Protein cereblon/Leucine-rich repeat serine/threonine-protein kinase 2. Description: PROTAC activity at CRBN/wild type HiBit tagged-LRRK in HEK293 cells assessed as LRRK2 degradation by Nano-Glo dual-luciferase reporter assay. In kind it is cell-based.
The target of data set [5] is Leucine-rich repeat serine/threonine-protein kinase 2 (Homo sapiens, UniProt Q5S007). Description: Inhibition of wild-type LRRK2 (unknown origin) by adapta assay.
Data set [6] concerns the target Leucine-rich repeat serine/threonine-protein kinase 2 (Homo sapiens, UniProt Q5S007, G2019S). Description: Inhibition of LRRK2 G2019S mutant (unknown origin) by adapta assay.
In data set [7] the test system is von Hippel-Lindau disease tumor suppressor/Leucine-rich repeat serine/threonine-protein kinase 2 (Mus musculus), Q5S006+P40338 [R1441C]. Kind of data set: PROTAC activity at VHL/LRRK2 R1441C mutant in mouse embryonic fibroblast cells assessed as induction of LRRK2 degradation by measuring half-life. In kind it is cell-based. Conditions: MEF.
Data set [8] has the same test system. Description: PROTAC activity at VHL/LRRK2 R1441C mutant in mouse bone marrow derived macrophages assessed as induction of LRRK2 degradation by measuring half-life. To be noted: BMDM. In kind it is cell-based.
Data set [9] shares this test system. Kind of data set: PROTAC activity at VHL/LRRK2 R1441C mutant in mouse PBMC cells assessed as induction of LRRK2 degradation by measuring maximal efficacy relative to control. It is filed as cell-based.
For data set [10] the test system is unchanged. Description: PROTAC activity at VHL/LRRK2 R1441C mutant in mouse bone marrow derived macrophages assessed as induction of LRRK2 degradation by measuring maximal efficacy relative to control. It is filed as cell-based. Conditions: BMDM.
Data set [11] has as its target T2, von Hippel-Lindau disease tumor suppressor/Leucine-rich repeat serine/threonine-protein kinase 2 (Mus musculus, UniProt P40338+Q5S006, R1441C). Kind of data set: PROTAC activity at VHL/LRRK2 R1441C mutant in mouse bone marrow derived macrophages assessed as induction of LRRK2 degradation. In kind it is cell-based, BMDM.
The target in data set [12] is T2, von Hippel-Lindau disease tumor suppressor/Leucine-rich repeat serine/threonine-protein kinase 2. Description: PROTAC activity at VHL/LRRK2 R1441C mutant in mouse embryonic fibroblast cells assessed as induction of LRRK2 degradation. In kind it is cell-based, MEF.
Data set [13] has the same target. Kind of data set: PROTAC activity at VHL/LRRK2 R1441C mutant in mouse PBMC cells assessed as induction of LRRK2 degradation. In kind it is cell-based.
Data set [14] in a line: Oral bioavailability in mouse. In kind it is ADME, organism-based. To be noted: in vivo.
Data set [15] concerns von Hippel-Lindau disease tumor suppressor/Leucine-rich repeat serine/threonine-protein kinase 2 (Mus musculus), Q5S006+P40338 [R1441C]. Description: PROTAC activity at VHL/LRRK2 R1441C mutant in mouse PBMC cells assessed as induction of LRRK2 degradation by measuring half-life. It is filed as cell-based.
Data set [16] has the same test system. Kind of data set: PROTAC activity at VHL/LRRK2 R1441C mutant in mouse embryonic fibroblast cells assessed as induction of LRRK2 degradation by measuring maximal efficacy relative to control. In kind it is cell-based. Conditions: MEF.

T2 sequence (P40338 whole entry, stated change not applied): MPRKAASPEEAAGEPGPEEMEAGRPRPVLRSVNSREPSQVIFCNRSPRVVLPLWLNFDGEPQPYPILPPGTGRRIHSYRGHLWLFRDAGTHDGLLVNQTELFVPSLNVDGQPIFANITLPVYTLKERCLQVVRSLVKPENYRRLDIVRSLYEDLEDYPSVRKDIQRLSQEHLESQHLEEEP
T2 sequence (Q5S006 whole entry R1441C, stated change not applied): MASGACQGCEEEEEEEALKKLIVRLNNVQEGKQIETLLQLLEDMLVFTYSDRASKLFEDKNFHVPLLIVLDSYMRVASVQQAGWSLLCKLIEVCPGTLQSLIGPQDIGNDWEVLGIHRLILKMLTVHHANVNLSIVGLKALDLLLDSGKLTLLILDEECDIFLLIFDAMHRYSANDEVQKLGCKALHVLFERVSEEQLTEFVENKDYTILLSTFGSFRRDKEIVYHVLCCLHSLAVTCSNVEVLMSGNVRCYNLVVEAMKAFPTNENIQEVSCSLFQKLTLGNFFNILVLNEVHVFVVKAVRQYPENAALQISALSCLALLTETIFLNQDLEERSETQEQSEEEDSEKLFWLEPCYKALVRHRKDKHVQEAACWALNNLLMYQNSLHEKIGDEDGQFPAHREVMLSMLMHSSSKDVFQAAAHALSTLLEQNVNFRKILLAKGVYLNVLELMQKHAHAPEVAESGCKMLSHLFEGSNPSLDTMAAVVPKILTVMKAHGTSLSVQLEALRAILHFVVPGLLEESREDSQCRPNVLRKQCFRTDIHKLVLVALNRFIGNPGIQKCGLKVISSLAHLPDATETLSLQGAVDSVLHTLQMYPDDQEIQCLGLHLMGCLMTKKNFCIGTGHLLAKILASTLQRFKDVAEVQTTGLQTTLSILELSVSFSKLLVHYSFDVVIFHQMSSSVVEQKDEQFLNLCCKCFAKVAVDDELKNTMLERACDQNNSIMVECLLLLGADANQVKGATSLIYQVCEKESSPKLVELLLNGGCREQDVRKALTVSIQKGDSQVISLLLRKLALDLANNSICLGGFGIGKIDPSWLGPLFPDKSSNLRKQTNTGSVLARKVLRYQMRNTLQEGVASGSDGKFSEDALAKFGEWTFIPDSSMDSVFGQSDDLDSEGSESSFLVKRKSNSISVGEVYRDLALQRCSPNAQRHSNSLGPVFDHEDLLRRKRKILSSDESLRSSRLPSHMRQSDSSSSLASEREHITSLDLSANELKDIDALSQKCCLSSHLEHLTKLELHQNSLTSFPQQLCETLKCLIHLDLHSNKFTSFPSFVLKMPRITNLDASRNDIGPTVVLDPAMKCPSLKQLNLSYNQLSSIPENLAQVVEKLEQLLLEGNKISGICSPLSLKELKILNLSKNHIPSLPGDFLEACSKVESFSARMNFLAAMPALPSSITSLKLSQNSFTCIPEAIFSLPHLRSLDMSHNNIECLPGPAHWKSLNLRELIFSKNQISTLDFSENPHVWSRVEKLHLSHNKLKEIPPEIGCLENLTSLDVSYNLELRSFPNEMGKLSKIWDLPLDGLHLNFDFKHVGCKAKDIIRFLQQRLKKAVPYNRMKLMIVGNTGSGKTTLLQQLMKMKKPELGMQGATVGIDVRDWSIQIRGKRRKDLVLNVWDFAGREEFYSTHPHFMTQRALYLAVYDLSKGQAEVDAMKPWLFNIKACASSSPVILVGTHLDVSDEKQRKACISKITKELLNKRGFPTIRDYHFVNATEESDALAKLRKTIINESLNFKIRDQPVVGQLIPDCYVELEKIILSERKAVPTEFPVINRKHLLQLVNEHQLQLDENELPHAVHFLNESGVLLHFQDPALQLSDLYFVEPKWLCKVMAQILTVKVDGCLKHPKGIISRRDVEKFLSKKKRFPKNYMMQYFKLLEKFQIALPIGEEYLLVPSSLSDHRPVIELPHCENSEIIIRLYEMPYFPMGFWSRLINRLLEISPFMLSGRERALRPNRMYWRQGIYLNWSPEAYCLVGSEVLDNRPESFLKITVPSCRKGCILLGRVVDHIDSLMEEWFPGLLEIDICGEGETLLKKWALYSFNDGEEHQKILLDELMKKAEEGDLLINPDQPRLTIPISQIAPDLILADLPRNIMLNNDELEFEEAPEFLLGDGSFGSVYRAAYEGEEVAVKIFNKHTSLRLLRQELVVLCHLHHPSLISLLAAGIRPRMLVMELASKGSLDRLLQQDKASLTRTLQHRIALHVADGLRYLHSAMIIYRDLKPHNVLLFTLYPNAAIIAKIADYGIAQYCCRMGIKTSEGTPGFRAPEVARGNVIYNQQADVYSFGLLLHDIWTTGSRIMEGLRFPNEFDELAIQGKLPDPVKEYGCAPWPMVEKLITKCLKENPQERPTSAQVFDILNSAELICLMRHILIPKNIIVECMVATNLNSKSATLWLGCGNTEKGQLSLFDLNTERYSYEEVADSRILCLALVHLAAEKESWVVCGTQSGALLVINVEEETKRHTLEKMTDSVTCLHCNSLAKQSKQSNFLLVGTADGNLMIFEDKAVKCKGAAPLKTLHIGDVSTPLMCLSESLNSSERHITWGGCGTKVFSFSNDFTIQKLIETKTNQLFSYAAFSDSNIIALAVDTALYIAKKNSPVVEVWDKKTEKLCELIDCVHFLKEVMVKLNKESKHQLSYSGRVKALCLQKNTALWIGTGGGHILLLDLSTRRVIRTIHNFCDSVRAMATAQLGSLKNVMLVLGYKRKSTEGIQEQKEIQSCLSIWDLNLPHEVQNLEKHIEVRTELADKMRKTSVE

What is called Emax is the greatest response seen or fitted, relative to the assay's reference. As usually defined, the EC50 is the concentration that produces a half-maximal response. As for `C[C@H]1CN(c2cc(-c3n[nH]c4ccc(OC5(C)CC5)cc34)ccn2)CCN1CCOCCOCCOCCOc1ccc2c(c1)C(=O)N(C1CCC(=O)NC1=O)C2=O` (stereo partly specified), the Emax in [1] and in [2] was above 70% in each case. Besides, the concentration for a half-maximal effect (EC50) in [3] and in [4] was below 10 nM each time.
For orientation: IC50 means the concentration that gives 50% inhibition. In the case of `CC1(Oc2ccc3[nH]nc(-c4cc(N5CCN(CCOCCOCCOCCOc6ccc7c(c6)C(=O)N(C6CCC(=O)NC6=O)C7=O)CC5)ncn4)c3c2)CC1` (stereo unspecified), the IC50 in data set [5] stood at 1.46 nM; in [6], 0.98 nM.
Usually bioavailability stands for the share of a dose that reaches the circulation, judged against a reference dose that is usually intravenous. A higher bioavailability goes with good availability. Turning to `CNc1nc(Nc2ccc(C(=O)N3CCN(C[C@H]4CC[C@H](CSC(C)(C)[C@H](NC(=O)C5(F)CC5)C(=O)N5C[C@@H](O)C[C@@H]5C(=O)NCc5ccc(-c6scnc6C)cc5)CC4)CC3)cc2OC)ncc1Cl`, the T1/2 in data set [7], in data set [8] and in data set [15] was 36 min throughout. Also, the Emax in [9], in [10] and in data set [16] was 82% in each case. Also, the half-maximal effective concentration (EC50) in data set [11], in data set [12] and in data set [13] was 15 nM throughout. The bioavailability in [14] came out at 15%.
